Test [1] concerns the target T1, FKBP12 / FRB (rapamycin CIP system) (Homo sapiens, UniProt P42345+P62942).
T1 construct: gene FKBP1A
In words: RSICS fluorescence cross-correlation in living cells. The format is cell-based. Particulars: COS-7 cells, 15 min, ternary complex FKBP12-rapamycin-FRB.

Test [2] has as its target T2, PYL / ABI (ABA CIP system) (Arabidopsis thaliana, UniProt Q8VZS8).
T2 construct: gene PYL1; TOM20-PYL and eGFP-ABI fusions for imaging; with Protein phosphatase 2C 56
T2 sequence (Q8VZS8 33-209 limits assumed): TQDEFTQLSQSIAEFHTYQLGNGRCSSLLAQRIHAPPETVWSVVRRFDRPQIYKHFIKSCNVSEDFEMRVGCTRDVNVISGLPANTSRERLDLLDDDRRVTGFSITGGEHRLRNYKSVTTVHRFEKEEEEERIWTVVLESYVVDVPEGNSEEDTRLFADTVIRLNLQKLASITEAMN
T2 sequence (P49597 126-423 partner limits assumed): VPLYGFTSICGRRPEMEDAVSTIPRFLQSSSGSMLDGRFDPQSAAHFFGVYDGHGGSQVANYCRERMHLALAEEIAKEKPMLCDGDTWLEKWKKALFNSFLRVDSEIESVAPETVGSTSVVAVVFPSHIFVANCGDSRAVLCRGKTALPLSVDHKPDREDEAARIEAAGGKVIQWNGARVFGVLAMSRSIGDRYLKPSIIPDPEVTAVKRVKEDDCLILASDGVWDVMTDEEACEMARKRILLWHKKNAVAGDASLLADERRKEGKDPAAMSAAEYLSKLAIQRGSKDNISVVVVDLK
Kind of test: Gal4BD/VP16 induced-proximity luciferase expression assay. The format is cell-based. Particulars: COS-7 cells, […] h incubation; induced dimerization of PYL with ABI; text says ABA, legend of Fig. 2e names ABA and also ABA-AM.

For orientation: EC50 means the concentration giving half of the maximal effect.

T1 sequence (P62942 2-108): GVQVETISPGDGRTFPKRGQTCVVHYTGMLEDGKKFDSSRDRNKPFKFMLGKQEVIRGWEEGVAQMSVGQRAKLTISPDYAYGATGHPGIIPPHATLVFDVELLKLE
T1 sequence (P42345 2021-2113 limits assumed): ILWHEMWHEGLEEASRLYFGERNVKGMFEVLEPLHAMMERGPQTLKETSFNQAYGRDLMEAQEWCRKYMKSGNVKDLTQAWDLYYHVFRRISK

`CO[C@H]1C[C@@H]2CC[C@@H](C)[C@@](O)(O2)C(=O)C(=O)N2CCCC[C@H]2C(=O)O[C@H]([C@H](C)C[C@@H]2CC[C@@H](O)[C@H](OC)C2)CC(=O)[C@H](C)/C=C(\C)[C@@H](O)[C@@H](OC)C(=O)[C@H](C)C[C@H](C)/C=C/C=C/C=C/1C` [compound 5, rapamycin]: the “binding efficiency (interacting fraction) at 500 nM” value in test [1] stood at 71 ± 3%.
Compound (+)-abscisic acid [compound 3] yielded an EC50 in test [2] of 30.8 ± 15.5 µM.
